Data from ChEMBL document CHEMBL4411321, “Discovery of Potent, Selective, and Orally Bioavailable Estrogen-Related Receptor-γ Inverse Agonists To Restore the Sodium Iodide Symporter Function in Anaplastic Thyroid Cancer” (J Med Chem, 2019).

Assays:
[1] = biological target: T1, Steroid hormone receptor ERR1 (Homo sapiens, UniProt P11474)
T1 sequence (P11474 whole entry): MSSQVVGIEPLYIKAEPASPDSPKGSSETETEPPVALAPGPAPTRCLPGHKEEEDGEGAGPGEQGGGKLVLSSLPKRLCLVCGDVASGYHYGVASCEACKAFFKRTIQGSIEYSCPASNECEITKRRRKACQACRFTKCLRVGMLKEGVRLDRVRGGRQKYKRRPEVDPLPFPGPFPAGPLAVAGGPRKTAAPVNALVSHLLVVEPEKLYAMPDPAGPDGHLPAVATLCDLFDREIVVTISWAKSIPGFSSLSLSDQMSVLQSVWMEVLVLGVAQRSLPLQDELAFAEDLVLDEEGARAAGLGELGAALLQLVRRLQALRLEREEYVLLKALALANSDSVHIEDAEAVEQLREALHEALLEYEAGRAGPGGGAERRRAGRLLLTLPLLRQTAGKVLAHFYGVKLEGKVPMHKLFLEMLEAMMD

[2] = biological target: T2, Estrogen-related receptor gamma (Homo sapiens, UniProt P62508)
T2 sequence (P62508 whole entry): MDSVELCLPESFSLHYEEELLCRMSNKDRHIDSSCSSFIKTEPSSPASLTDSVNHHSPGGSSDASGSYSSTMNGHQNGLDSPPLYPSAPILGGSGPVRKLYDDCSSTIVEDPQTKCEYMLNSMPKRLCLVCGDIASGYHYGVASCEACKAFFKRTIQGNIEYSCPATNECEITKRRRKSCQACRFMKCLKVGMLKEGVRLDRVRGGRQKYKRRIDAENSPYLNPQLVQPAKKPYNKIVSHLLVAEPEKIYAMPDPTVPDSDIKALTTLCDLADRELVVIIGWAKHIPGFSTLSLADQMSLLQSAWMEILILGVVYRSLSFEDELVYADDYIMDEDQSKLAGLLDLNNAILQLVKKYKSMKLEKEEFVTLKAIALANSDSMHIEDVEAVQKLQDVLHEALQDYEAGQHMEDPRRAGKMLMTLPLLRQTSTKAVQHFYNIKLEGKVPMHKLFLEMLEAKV

Estrogen receptor = biological target: T3, Estrogen receptor (Homo sapiens, UniProt P03372)
T3 sequence (P03372 whole entry): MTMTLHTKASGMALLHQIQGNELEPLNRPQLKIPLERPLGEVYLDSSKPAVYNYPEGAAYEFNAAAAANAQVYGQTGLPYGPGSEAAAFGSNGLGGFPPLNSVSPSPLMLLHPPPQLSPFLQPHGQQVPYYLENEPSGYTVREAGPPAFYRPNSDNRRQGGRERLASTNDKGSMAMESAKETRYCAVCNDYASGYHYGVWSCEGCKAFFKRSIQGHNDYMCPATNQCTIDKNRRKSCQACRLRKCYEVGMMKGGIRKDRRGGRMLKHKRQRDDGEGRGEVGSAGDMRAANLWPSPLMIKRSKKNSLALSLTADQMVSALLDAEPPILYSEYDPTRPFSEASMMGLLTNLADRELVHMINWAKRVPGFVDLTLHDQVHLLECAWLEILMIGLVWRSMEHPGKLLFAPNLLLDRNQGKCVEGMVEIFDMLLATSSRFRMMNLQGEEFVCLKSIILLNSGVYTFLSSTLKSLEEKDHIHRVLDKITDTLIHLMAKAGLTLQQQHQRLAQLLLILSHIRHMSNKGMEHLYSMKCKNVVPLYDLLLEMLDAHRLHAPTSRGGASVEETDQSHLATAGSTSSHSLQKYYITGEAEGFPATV

[3] = Metabolic stability in dog liver microsomes assessed as compound remaining at 1 uM after 30 mins in presence of NADPH regeneration system by LC-MS/MS analysis; format: ADME, Canis lupus familiaris, Microsome; conditions: read-out: Stability
[4] = Metabolic stability in human liver microsomes assessed as compound remaining at 1 uM after 30 mins in presence of NADPH regeneration system by LC-MS/MS analysis; format: ADME, Microsome; conditions: read-out: Stability
[5] = Effective permeability of the compound at 10 uM after 5 hrs by PAMPA; format: ADME; conditions: read-out: Peff
CYP1A2 = biological target: T4, CYP1A2 (Homo sapiens, UniProt P05177); experiment: Inhibition of CYP1A2 in human liver microsomes assessed as reduction in phenacetin O-deethylase activity at 10 uM preincubated for 5 mins followed by NADPH addition and measured after 15 mins by LC-MS/MS analysis relative to control; format: ADME; conditions: probe phenacetin (O-deethylation)
T4 sequence (P05177 whole entry): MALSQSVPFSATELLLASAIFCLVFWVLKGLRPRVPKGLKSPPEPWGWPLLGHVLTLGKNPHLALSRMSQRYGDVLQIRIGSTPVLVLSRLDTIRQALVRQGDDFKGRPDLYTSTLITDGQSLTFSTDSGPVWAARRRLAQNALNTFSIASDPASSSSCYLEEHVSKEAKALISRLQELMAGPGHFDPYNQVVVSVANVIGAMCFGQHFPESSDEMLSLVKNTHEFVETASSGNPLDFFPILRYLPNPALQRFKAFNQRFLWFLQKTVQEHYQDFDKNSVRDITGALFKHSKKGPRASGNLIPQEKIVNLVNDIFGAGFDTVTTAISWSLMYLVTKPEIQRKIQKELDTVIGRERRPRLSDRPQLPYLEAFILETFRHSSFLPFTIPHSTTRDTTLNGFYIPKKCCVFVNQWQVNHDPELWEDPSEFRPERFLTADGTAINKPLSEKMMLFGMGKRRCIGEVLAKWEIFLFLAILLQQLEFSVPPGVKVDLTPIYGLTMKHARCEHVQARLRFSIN

CYP2D6 = CYP2D6 (Homo sapiens, UniProt P10635); experiment: Inhibition of CYP2D6 in human liver microsomes assessed as reduction in dextromethorphan O-demethylase activity at 10 uM preincubated for 5 mins followed by NADPH addition and measured after 15 mins by LC-MS/MS analysis relative to control; format: ADME; conditions: probe dextromethorphan (O-demethylation)
Chain of CYP2D6 (P10635 whole entry): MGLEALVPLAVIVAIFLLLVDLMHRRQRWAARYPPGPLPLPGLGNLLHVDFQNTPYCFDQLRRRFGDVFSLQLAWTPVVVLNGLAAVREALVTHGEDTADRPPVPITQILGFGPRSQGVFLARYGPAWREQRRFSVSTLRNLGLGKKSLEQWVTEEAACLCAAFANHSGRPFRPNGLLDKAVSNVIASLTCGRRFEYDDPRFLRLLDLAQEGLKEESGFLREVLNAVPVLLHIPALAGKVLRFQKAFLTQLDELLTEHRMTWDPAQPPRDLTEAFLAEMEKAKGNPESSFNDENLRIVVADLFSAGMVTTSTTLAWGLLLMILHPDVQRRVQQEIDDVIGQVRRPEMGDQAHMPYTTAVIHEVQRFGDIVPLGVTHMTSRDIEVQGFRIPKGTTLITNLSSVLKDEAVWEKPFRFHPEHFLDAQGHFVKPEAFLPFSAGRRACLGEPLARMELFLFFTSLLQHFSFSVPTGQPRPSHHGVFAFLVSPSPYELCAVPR

[6] = biological target: T5, Steroid hormone receptor ERR2 (Homo sapiens, UniProt O95718); experiment: Binding affinity to ERRbeta (unknown origin) using fluorescein-conjugated coactivator PGC-1alpha incubated for 1 hr by TR-FRET assay
T5 sequence (O95718 whole entry): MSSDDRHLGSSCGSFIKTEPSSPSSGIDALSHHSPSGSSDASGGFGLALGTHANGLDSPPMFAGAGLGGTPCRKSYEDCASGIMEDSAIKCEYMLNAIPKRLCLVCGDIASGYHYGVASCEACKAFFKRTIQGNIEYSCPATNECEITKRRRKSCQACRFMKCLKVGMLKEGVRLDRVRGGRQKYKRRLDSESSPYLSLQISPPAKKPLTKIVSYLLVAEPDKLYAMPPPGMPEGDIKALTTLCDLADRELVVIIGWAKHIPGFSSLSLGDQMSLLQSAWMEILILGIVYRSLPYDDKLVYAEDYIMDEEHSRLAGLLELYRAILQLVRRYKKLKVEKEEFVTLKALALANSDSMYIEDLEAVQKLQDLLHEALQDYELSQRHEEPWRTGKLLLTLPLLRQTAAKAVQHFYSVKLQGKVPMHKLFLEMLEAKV

CYP2C9 = CYP2C9 (Homo sapiens, UniProt P11712); experiment: Inhibition of CYP2C9 in human liver microsomes assessed as reduction in tolbutamide 4-hydroxylase activity at 10 uM preincubated for 5 mins followed by NADPH addition and measured after 15 mins by LC-MS/MS analysis relative to control; format: ADME; conditions: probe tolbutamide (4-hydroxylation)
Chain of CYP2C9 (P11712 whole entry): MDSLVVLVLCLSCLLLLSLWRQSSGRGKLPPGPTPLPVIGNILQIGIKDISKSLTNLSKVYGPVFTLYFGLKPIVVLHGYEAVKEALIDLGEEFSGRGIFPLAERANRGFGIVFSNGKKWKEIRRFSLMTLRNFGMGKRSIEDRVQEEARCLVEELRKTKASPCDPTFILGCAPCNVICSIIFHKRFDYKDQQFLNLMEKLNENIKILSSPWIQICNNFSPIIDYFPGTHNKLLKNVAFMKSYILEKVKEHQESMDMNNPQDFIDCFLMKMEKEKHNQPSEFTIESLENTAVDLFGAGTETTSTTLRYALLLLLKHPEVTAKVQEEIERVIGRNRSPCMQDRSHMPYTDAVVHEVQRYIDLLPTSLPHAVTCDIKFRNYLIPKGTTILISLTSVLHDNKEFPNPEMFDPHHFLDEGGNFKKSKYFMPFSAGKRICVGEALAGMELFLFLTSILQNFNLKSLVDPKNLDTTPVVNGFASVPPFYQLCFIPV

CYP3A4 = CYP3A4 (Homo sapiens, UniProt P08684); experiment: Inhibition of CYP3A4 in human liver microsomes assessed as reduction in midazolam 1-hydroxylase activity at 10 uM preincubated for 5 mins followed by NADPH addition and measured after 15 mins by LC-MS/MS analysis relative to control; format: ADME; conditions: probe midazolam (1-hydroxylation)
Chain of CYP3A4 (P08684 whole entry): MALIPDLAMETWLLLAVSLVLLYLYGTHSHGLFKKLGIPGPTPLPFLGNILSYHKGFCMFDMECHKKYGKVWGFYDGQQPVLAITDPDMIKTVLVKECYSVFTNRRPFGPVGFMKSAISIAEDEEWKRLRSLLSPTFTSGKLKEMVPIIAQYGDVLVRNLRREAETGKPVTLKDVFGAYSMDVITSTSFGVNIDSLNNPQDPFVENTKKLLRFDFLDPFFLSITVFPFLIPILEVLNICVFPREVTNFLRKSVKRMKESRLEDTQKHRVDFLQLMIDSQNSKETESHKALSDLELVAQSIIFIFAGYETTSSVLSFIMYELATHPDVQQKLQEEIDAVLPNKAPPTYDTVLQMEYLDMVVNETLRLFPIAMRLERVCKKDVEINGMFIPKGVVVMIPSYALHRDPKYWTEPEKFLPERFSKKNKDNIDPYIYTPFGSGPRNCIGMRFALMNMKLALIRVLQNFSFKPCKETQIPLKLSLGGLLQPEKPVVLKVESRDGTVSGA

CYP2C19 = CYP2C19 (Homo sapiens, UniProt P33261); experiment: Inhibition of CYP2C19 in human liver microsomes assessed as reduction in S-mephenytoin 4-hydroxylase activity at 10 uM preincubated for 5 mins followed by NADPH addition and measured after 15 mins by LC-MS/MS analysis relative to control; format: ADME; conditions: probe S-mephenytoin (4-hydroxylation)
Chain of CYP2C19 (P33261 whole entry): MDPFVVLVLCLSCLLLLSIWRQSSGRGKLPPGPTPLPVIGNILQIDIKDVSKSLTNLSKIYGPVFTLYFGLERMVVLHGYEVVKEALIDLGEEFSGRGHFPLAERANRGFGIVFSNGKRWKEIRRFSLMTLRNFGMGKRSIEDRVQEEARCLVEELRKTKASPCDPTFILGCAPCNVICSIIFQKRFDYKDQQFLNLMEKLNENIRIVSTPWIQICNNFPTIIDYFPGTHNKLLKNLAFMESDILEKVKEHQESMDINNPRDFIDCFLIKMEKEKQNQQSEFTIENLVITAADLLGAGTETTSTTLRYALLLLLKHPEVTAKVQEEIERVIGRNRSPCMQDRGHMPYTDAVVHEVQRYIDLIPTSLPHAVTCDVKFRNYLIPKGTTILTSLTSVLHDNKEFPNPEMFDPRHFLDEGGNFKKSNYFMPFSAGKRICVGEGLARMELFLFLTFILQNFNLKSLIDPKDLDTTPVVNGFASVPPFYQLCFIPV

[7] = Metabolic stability in rat liver microsomes assessed as compound remaining at 1 uM after 30 mins in presence of NADPH regeneration system by LC-MS/MS analysis; format: ADME, Microsome; conditions: read-out: Stability
[8] = Metabolic stability in mouse liver microsomes assessed as compound remaining at 1 uM after 30 mins in presence of NADPH regeneration system by LC-MS/MS analysis; format: ADME, Microsome; conditions: read-out: Stability

For `OCCC/C(=C(\c1ccc(O)cc1)c1ccc(N2CCN(C3CCC3)CC2)cc1)c1ccccc1`, the IC50 [1] was > 10000 nM, the IC50 [2] was 53 nM and the IC50 (Estrogen receptor) was 1660 nM.
With `OCCC/C(=C(\c1ccc(O)cc1)c1ccc(N2CCN(C3COC3)CC2)cc1)c1ccccc1` the IC50 [2] was 214 nM.
In the case of `CCN1CCN(c2ccc(/C(=C(/CCCO)c3ccccc3)c3ccc(O)cc3)cc2)CC1`, the IC50 [1] is reported as > 10000 nM, the IC50 [2] is reported as 50 nM and the IC50 (Estrogen receptor) is reported as 1140 nM.
With `CC(C)N1CCN(c2cccc(/C(=C(/CCCO)c3ccccc3)c3ccc(O)cc3)c2)CC1` the IC50 [2] was > 10000 nM.
With `Cc1ccc(/C(=C(\CCCO)c2ccccc2)c2ccc(N3CCNCC3)cc2)cc1.Cl.Cl` the IC50 [1] was > 10000 nM, the remaining at 0.5 h, 1 µM [3] was 58% and the remaining at 0.5 h, 1 µM [4] was 44%. The Papp at 5 h, 10 µM [5] was 3.61 ×10⁻⁶ cm/s, the inhibition at 0.25 h, 10 µM (CYP1A2) was 28.7% and the inhibition at 0.25 h, 10 µM (CYP2D6) was 38.5%. For the same compound, the IC50 [6] was 2100 nM, the inhibition at 0.25 h, 10 µM (CYP2C9) was 39.3% and the inhibition at 0.25 h, 10 µM (CYP3A4) was 59.9%. It also gave an inhibition at 0.25 h, 10 µM (CYP2C19) of 57.7%, a remaining at 0.5 h, 1 µM [7] of 71.5% and a remaining at 0.5 h, 1 µM [8] of 28.8%. The IC50 (Estrogen receptor) was > 10000 nM.
In the case of `CC(C)N1CCN(c2cccc(/C(=C(/CCCO)c3ccccc3)c3cccc(O)c3)c2)CC1`, the IC50 [2] is reported as 5620 nM.
`OCCC/C(=C(\c1ccc(Br)cc1)c1ccc(N2CCNCC2)cc1)c1ccccc1` showed a remaining at 0.5 h, 1 µM [4] of 65.1%, an inhibition at 0.25 h, 10 µM (CYP1A2) of 15% and an inhibition at 0.25 h, 10 µM (CYP2D6) of 29.3%. For the same compound, the inhibition at 0.25 h, 10 µM (CYP2C9) was 24%, the inhibition at 0.25 h, 10 µM (CYP3A4) was 45% and the inhibition at 0.25 h, 10 µM (CYP2C19) was 38.1%. For the same compound, the remaining at 0.5 h, 1 µM [7] was 84.7% and the IC50 (Estrogen receptor) was > 10000 nM.
For `CC(C)N1CCN(c2ccc(/C(=C(/CCCO)c3ccccc3)c3ccc(OS(C)(=O)=O)cc3)cc2)CC1`, the IC50 [2] was 2630 nM.
With `CC(C)N1CCN(c2ccc(/C(=C(/CCCO)c3ccccc3)c3ccc(OS(=O)(=O)C4CC4)cc3)cc2)CC1` the IC50 [2] was 1360 nM.
In the case of `CC(C)N1CCN(c2ccc(/C(=C(/CCCO)c3ccccc3)c3ccc(NS(=O)(=O)C4CC4)cc3)cc2)CC1`, the IC50 [2] is reported as 3630 nM.
`CC(C)N1CCN(c2ccc(/C(=C(/CCCO)c3ccccc3)c3ccc(OS(=O)(=O)C(F)(F)F)cc3)cc2)CC1` showed an IC50 [2] of 3020 nM.
`CC(=O)Nc1ccc(/C(=C(\CCCO)c2ccccc2)c2ccc(N3CCN(C(C)C)CC3)cc2)cc1` gave an IC50 [2] of 4330 nM.
